Here are results for 33 compounds from patent publication US9216173B2, “2-Pyridyl carboxamide-containing spleen tyrosine kinase (SYK) inhibitors” (Merck Sharp & Dohme Corp., priority 2011, dated 2015).

One may read the IC50 as the concentration that inhibits the measured activity by half.

The target in one experiment is T1, recombinant human GST-SYK (Homo sapiens, UniProt P43405).
T1 construct: purchased Carna Biosciences 08-176
The experiment can be described thus: Homogeneous Time-Resolved Fluorescence (HTRF) assay for the recombinant human Syk enzyme. The class given is biochemical. The settings on record: GST-hSYK 5 pM, ATP 25 μM, 10-dose titration 10 μM to 0.508 nM; read-out: IC50. As for the experimental part: Homogeneous Time-Resolved Fluorescence (HTRF) Assay for the Recombinant Human Syk Enzyme
A recombinant GST-hSYK fusion protein was used to measure potency of compounds to inhibit human Syk activity. […] Final volume of the reaction was 10 μL. Phosphorylation of the peptide was allowed to proceed for 45 minutes at room temperature. To quench the reaction and detect the phosphorylated product, 2 nM of a Europium-anti-phosphotyrosine antibody (Perkin Elmer #AD0161) and 70 nM SA-APC (Perkin-Elmer #CR130-100) were added together in 15 mM Tris pH 7.5, 40 mM EDTA, 0.01% tween 20. Final volume of the quenching solution was 10 μL. The resulting HTRF signal was measured after 30 minutes on an EnVision (Perkin-Elmer) reader using a time-resolved fluorescence protocol.
As for `Cc1cc(C)nc(Nc2cc(NC(C(N)=O)C(C)C)cnc2C(N)=O)c1` (stereo not shown) [Example 1.41, 5-[(1-carbamoyl-2-methylpropyl)amino]-3-[(4,6-dimethylpyridin-2-yl)amino]pyridine-2-carboxamide], the IC50 was determined as 12 nM.

For `Cc1cc(C)nc(Nc2cc(N[C@@H](CC(C)C)C(N)=O)cnc2C(N)=O)c1` [Example 1.46, N^2-{6-carbamoyl-5-[(4,6-dimethylpyridin-2-yl)amino]pyridin-3-yl}- -leucinamide], the IC50 was 7.8 nM.

Still in this experiment, the particulars now being: GST-hSYK 5 pM, ATP 25 μM, 10-dose titration 10 μM to 0.508 nM; read-out: rhSYK Activity (IC50 rating).
Regarding `Cc1cc(C)nc(Nc2cc(NC(CN)c3ccccc3)cnc2C(N)=O)c1` (stereo not shown) [Example 1.22, 5-[(2-amino-1-phenylethyl)amino]-3-[(4,6-dimethylpyridin-2-yl)amino]pyridine-2-carboxamide], the IC50 was < 10 nM.

`Cc1cc(C)nc(Nc2cc(NC(CN)c3ccccc3)cnc2C(N)=O)c1` (stereo not shown) [Example 1.23, 5-[(2-amino-1-phenylethyl)amino]-3-[(4,6-dimethylpyridin-2-yl)amino]pyridine-2-carboxamide]: the IC50 lay in the range of 10 to 100 nM.

Regarding `Cc1nc(Nc2cc(N[C@@H]3CCCC[C@@H]3N)cnc2C(N)=O)ccc1F` [Example 1.24, 5-{[(1R,2S)-2-aminocyclohexyl]amino}-3-[(5-fluoro-6-methylpyridin-2-yl)amino]pyridine-2-carboxamide], the IC50 was < 10 nM.

With `NC(=O)c1ncc(N[C@@H]2CCCC[C@@H]2N)cc1Nc1cccc(-c2ccncc2)n1` [Example 1.27, 5-{[(1R,2S)-2-aminocyclohexyl]amino}-3-(2,4′-bipyridin-6-ylamino)pyridine-2-carboxamide], the IC50 was < 10 nM.

For `NC(=O)c1ncc(N[C@@H]2CCCC[C@@H]2N)cc1Nc1cccc(-c2ccccc2)n1` [Example 1.28, 5-{[(1R,2S)-2-aminocyclohexyl]amino}-3-[(6-phenylpyridin-2-yl)amino]pyridine-2-carboxamide], the IC50 is < 10 nM.

For `Cc1cc(C)nc(Nc2cc(NCC3(N)CCS(=O)(=O)CC3)cnc2C(N)=O)c1` [Example 1.29, 5-{[(4-amino-1,1-dioxidotetrahydro-2H-thiopyran-4-yl)methyl]amino}-3-[(4,6-dimethylpyridin-2-yl)amino]pyridine-2-carboxamide], the IC50 lay in the range of 10 to 100 nM.

Turning to `Cc1cc(C)nc(Nc2cc(NC(C)CN)cnc2C(N)=O)c1` (stereo not shown) [Example 1.30, 5-[(2-amino-1-methylethyl)amino]-3-[(4,6-dimethylpyridin-2-yl)amino]pyridine-2-carboxamide], the IC50 was < 10 nM.

Consider `Cc1nc(Nc2cc(N[C@@H]3CCCC[C@@H]3N)cnc2C(N)=O)ccc1Br` [Example 1.31, 5-{[(1R,2S)-2-aminocyclohexyl]amino}-3-[(5-bromo-6-methylpyridin-2-yl)amino]pyridine-2-carboxamide], for which the IC50 was < 10 nM.

For the compound `Cn1ccc(Nc2cc(N[C@@H]3CCCC[C@@H]3N)cnc2C(N)=O)n1` [Example 1.33, 5-{[(1R,2S)-2-aminocyclohexyl]amino}-3-[(1-methyl-1H-pyrazol-3-yl)amino]pyridine-2-carboxamide], the IC50 fell in the range of 10 to 100 nM.

For `Cc1cc(C)nc(Nc2cc(NCC3(N)CCOCC3)cnc2C(N)=O)c1` [Example 1.34, 5-{[(4-aminotetrahydro-2H-pyran-4-yl)methyl]amino}-3-[(4,6-dimethylpyridin-2-yl)amino]pyridine-2-carboxamide], the IC50 is 10 to 100 nM.

`Cc1cc(C)nc(Nc2cc(NCC3(N)CCOC3)cnc2C(N)=O)c1` (stereo not shown) [Example 1.35, 5-{[(3-aminotetrahydrofuran-3-yl)methyl]amino}-3-[(4,6-dimethylpyridin-2-yl)amino]pyridine-2-carboxamide]: the IC50 lay within 10 to 100 nM.

As for `Cc1cc(Cl)nc(Nc2cc(N[C@@H]3CCCC[C@@H]3N)cnc2C(N)=O)c1` [Example 1.38, 5-{[(1R,2S)-2-aminocyclohexyl]amino}-3-[(6-chloro-4-methylpyridin-2-yl)amino]pyridine-2-carboxamide], the IC50 was < 10 nM.

On to `Cc1cc(C)nc(Nc2cc(NC(C)C(N)=O)cnc2C(N)=O)c1` (stereo not shown) [Example 1.39, 5-[(2-amino-1-methyl-2-oxoethyl)amino]-3-[(4,6-dimethylpyridin-2-yl)amino]pyridine-2-carboxamide], for which the concentration for half-maximal inhibition (IC50) was 10 to 100 nM.

For the compound `Cc1cc(C)nc(Nc2cc(N[C@@H](CC(C)C)C(N)=O)cnc2C(N)=O)c1` [Example 1.40, N^2-{6-carbamoyl-5-[(4,6-dimethylpyridin-2-yl)amino]pyridin-3-yl}leucinamide], the IC50 is < 10 nM.

With `Cc1cc(C)nc(Nc2cc(NC(C(N)=O)C(C)C)cnc2C(N)=O)c1` (stereo not shown) [Example 1.41, 5-[(1-carbamoyl-2-methylpropyl)amino]-3-[(4,6-dimethylpyridin-2-yl)amino]pyridine-2-carboxamide], the IC50 fell in the range of 10 to 100 nM.

On to `NC(=O)c1ncc(N[C@@H]2CCCC[C@@H]2N)cc1Nc1cccc(-c2ccccn2)n1` [Example 1.42, 5-{[(1R,2S)-2-aminocyclohexyl]amino}-3-(2,2′-bipyridin-6-ylamino)pyridine-2-carboxamide], for which the concentration for half-maximal inhibition (IC50) was < 10 nM.

Consider `NC(=O)c1ncc(N[C@@H]2CCCC[C@@H]2N)cc1Nc1ncn(-c2ccccc2)n1` [Example 1.44, 5-{[(1R,2S)-2-aminocyclohexyl]amino}-3-[(1-phenyl-1H-1,2,4-triazol-3-yl)amino]pyridine-2-carboxamide], for which the IC50 was in the range of 10 to 100 nM.

Take `Cc1cc(C)nc(Nc2cc(N[C@@H](CC(C)C)C(N)=O)cnc2C(N)=O)c1` [Example 1.45, N^2-{6-carbamoyl-5-[(4,6-dimethylpyridin-2-yl)amino]pyridin-3-yl}- -leucinamide]: the IC50 is < 10 nM.

Consider `Cc1cc(C)nc(Nc2cc(N[C@H]3[C@@H](N)CCCC3(F)F)cnc2C(N)=O)c1` [Example 1.47, 5-{[(1S,6S)-6-amino-2,2-difluorocyclohexyl]amino}-3-[(4,6-dimethylpyridin-2-yl)amino]pyridine-2-carboxamide], for which the IC50 was < 10 nM.

On to `NC(=O)c1ncc(N[C@@H]2CCCC[C@@H]2N)cc1Nc1cccc(F)n1` [Example 1.48, 5-{[(1R,2S)-2-aminocyclohexyl]amino}-3-[(6-fluoropyridin-2-yl)amino]pyridine-2-carboxamide], for which the IC50 was < 10 nM.

Turning to `CCn1ccc(Nc2cc(N[C@@H]3CCCC[C@@H]3N)cnc2C(N)=O)n1` [Example 1.49, 5-{[(1R,2S)-2-aminocyclohexyl]amino}-3-[(1-ethyl-1H-pyrazol-3-yl)amino]pyridine-2-carboxamide], the IC50 was 10 to 100 nM.

For `NC(=O)c1ncc(N[C@@H]2CCCC[C@@H]2N)cc1Nc1ccn(Cc2ccccc2)n1` [Example 1.50, 5-{[(1R,2S)-2-aminocyclohexyl]amino}-3-[(1-benzyl-1H-pyrazol-3-yl)amino]pyridine-2-carboxamide], the IC50 was in the range of 10 to 100 nM.

For `NC(=O)c1ncc(N[C@@H]2CCCC[C@@H]2N)cc1Nc1cnn(-c2ccccc2)n1` [Example 1.51, 5-{[(1R,2S)-2-aminocyclohexyl]amino}-3-[(2-phenyl-2H-1,2,3-triazol-4-yl)amino]pyridine-2-carboxamide], the IC50 is < 10 nM.

`NC(=O)c1ncc(N[C@@H]2CCCC[C@@H]2N)cc1Nc1cccc(C2CC2)n1` [Example 1.53, 5-{[(1R,2S)-2-aminocyclohexyl]amino}-3-[(6-cyclopropylpyridin-2-yl)amino]pyridine-2-carboxamide]: the IC50 was < 10 nM.

On to `CC(C)c1cccc(Nc2cc(N[C@@H]3CCCC[C@@H]3N)cnc2C(N)=O)n1` [Example 1.54, 5-{[(1R,2S)-2-aminocyclohexyl]amino}-3-{[6-(1-methylethyl)pyridin-2-yl]amino}pyridine-2-carboxamide], for which the IC50 was < 10 nM.

On to `Cc1cc(C)n2nc(Nc3cc(N[C@@H]4CCCC[C@@H]4N)cnc3C(N)=O)cc2n1` [Example 1.55, 5-{[(1R,2S)-2-aminocyclohexyl]amino}-3-[(5,7-dimethylpyrazolo[1,5-a]pyrimidin-2-yl)amino]pyridine-2-carboxamide], for which the IC50 is < 10 nM.

Turning to `CCn1cnc(Nc2cc(N[C@@H]3CCCC[C@@H]3N)cnc2C(N)=O)n1` [Example 1.56, 5-{[(1R,2S)-2-aminocyclohexyl]amino}-3-[(1-ethyl-1H-1,2,4-triazol-3-yl)amino]pyridine-2-carboxamide], the IC50 was 100 to 1000 nM.

Consider `NC(=O)c1ncc(N[C@@H]2CCCC[C@@H]2N)cc1Nc1cccc(N2CCOCC2)n1` [Example 1.57, 5-{[(1R,2S)-2-aminocyclohexyl]amino}-3-[(6-morpholin-4-ylpyridin-2-yl)amino]pyridine-2-carboxamide], for which the IC50 was < 10 nM.

For the compound `NCCNc1cnc(C(N)=O)c(Nc2cccc(-n3nccn3)n2)c1` [Example 1.58, 5-[(2-aminoethyl)amino]-3-{[6-(2H-1,2,3-triazol-2-yl)pyridin-2-yl]amino}pyridine-2-carboxamide], the IC50 was < 10 nM.

Regarding `Cc1cc(C(=O)N(C)C)cc(Nc2cc(N[C@@H]3CCCC[C@@H]3N)cnc2C(N)=O)n1` [Example 1.59, 5-{[(1R,2S)-2-aminocyclohexyl]amino}-3-{[4-(dimethylcarbamoyl)-6-methylpyridin-2-yl]amino}pyridine-2-carboxamide], the IC50 was in the range of 10 to 100 nM.

In the case of `NC(=O)c1ncc(N[C@@H]2CCCC[C@@H]2N)cc1Nc1cccc(CN2CCOCC2)n1` [Example 1.60, 5-{[(1R,2S)-2-aminocyclohexyl]amino}-3-{[6-(morpholin-4-ylmethyl)pyridin-2-yl]amino}pyridine-2-carboxamide], the IC50 is 100 to 1000 nM.

As for `CN1CCN(Cc2cccc(Nc3cc(N[C@@H]4CCCC[C@@H]4N)cnc3C(N)=O)n2)CC1` [Example 1.61, 5-{[(1R,2S)-2-aminocyclohexyl]amino}-3-({6-[(4-methylpiperazin-1-yl)methyl]pyridin-2-yl}amino)pyridine-2-carboxamide], the IC50 is 100 to 1000 nM.
